Measurements: patent US11339119B2, “Crystal form and amorphous form of dezocine analogue hydrochloride” (Shandong Danhong Pharmaceutical Co., Ltd., priority 2017, dated 2022)
≈ marks a conversion by molar mass, not a printed value. Where “and” joins values, the source holds several entries; their conditions need not be identical. Equal entries are not always repeated. Entries after “also recorded” stand apart in the source; their conditions may differ.

Tests used:
[1] = Solid stability test of amorphous form (HPLC content and total impurity); type: physicochemical
Protocol: 1.5 High Performance Liquid Chromatograph (HPLC) • Instrument model: Agilent 1200 high performance liquid chromatograph • The analysis method is as follows:
Stability of amorphous form sample under conditions of high temperature, high humidity (40° C./RH 75.0%, closed) and acceleration.
About 1.4 g of sample was put into a double-layer LDPE bag, each layer of LDPE bag was fastened and sealed respectively, then the LDPE bag and a medicinal desiccant were put into an aluminum-foil bag and sealed by heating, under conditions of high temperature and high humidity, a sample was taken on the 30th day for detection, and a detection result was compared with an initial detection result on the 0th day.

[2] = Equilibrium solubility of amorphous form sample in different pH media; type: physicochemical; conditions: for solubility at 24 h: thermodynamic from solid
Protocol: An equilibrium solubility of an amorphous form sample in pH 1.0/2.0 (hydrochloric acid solution), pH 3.8/4.5/5.5 (acetate buffer solution), pH 6.0/6.8/7.4 (phosphate buffer solution) and water was detected (prepared according to the Technical Guiding Principles for Dissolution Rate Test of Ordinary Oral Solid Preparations of Chinese Pharmacopoeia).
5 mL of different media (pH 1.0, pH 2.0, pH 3.8, pH 4.5, pH 5.5, pH 6.0, pH 6.8 and pH 7.4 buffer solutions and pure water) were respectively added into nine 8 mL glass bottles, and an appropriate amount of amorphous form sample was added respectively to make the mixture a suspension. Magnetic stirring bars were added into the sample above, which are placed on a magnetic stirrer to stir (at a temperature of 37° C.).
The sample was centrifuged after 24 h, and a supernatant was taken from an upper sample to determine a concentration thereof by HPLC and a pH value thereof (results shown in Table 4).

[3] = Hygroscopicity test of amorphous form sample; type: physicochemical; conditions: 25° C., 24 h
Protocol: A hygroscopicity of an amorphous form sample was detected. (The hygroscopicity of the compound was determined according to the method in the General Rules of the Chinese Pharmacopoeia (2015 Version) Volume IV).
Three dry glass weighing bottles with stoppers were weighed, the results of which were recorded as m1 1, m1 2 and m1 3. An appropriate amount of crude drug sample was spread in the weighed weighing bottles (the sample has a thickness of about 1 mm), then accurately weighed and recorded as m2 1, m2 2 and m2 3. The weighing bottles were open and placed together with bottle caps in a dryer with saturated ammonium chloride solution at a lower part, the dryer was covered, then the dryer was placed in a thermostat at 25° C. for 24 h. After being placed for 24 h, the weighing bottles were covered, then taken out for accurate weighing, the results of which were recorded as m3 1, m3 2 and m3 3. Weight increase by hygroscopicity was calculated, and the calculation formula was as follows: weight increase percentage=100%×(m3−m2)/(m2−m1).

[4] = Solid stability test of crystal form (XRPD); type: physicochemical
Protocol: According to the Guiding Principles for Stability Experiment of Crude Drugs and Preparations (General Rules 9001 of Chinese Pharmacopoeia (2015 Version) Volume IV), a stability of a compound placed under conditions of high temperature (60° C., open), high humidity (RT/92.5% RH, open) and illumination (50001×, closed) for 5 days and 10 days were investigated.
An appropriate amount of a crystal form sample of a compound represented by formula (I) was placed at a bottom of a glass sample bottle and spread into a thin layer. The sample placed under the conditions of high temperature and high humidity was sealed with aluminum-foil paper, and small holes were punched in the aluminum-foil paper to ensure that the sample could be fully contacted with ambient air. The sample placed under the condition of illumination (50001×) was sealed with a bottle cap and further sealed with a sealing film, the sample was sealed and placed at a room temperature, and XRPD detection was performed on the 5th day and the 10th day.

[5] = Pharmacokinetic study, intramuscular injection in mouse; type: in vivo, SD mouse; conditions: sesame oil suspension
Protocol: Through the experiment of drug metabolism in a mouse, the metabolism of the compound in the mouse is evaluated by taking Cmax, t1/2, AUC, MRT and B/P ratio in vivo as indexes.
A test compound was mixed with an appropriate amount of sesame oil, and the mixture was vortexed and ultrasonically processed to obtain an even suspension of 25 μmol/mL. A SD mouse aged 6 weeks to 9 weeks (Shanghai SLAC Laboratory Animal Co., Ltd) was selected and intramuscularly injected with a suspension of the test compound at a dose of 20 μmol/kg or 40 μmol/kg. Whole blood of a certain period of time was collected, and a precipitant (acetonitrile, methanol and internal standard for analysis) was added and centrifuged. A supernatant solution was analyzed for a drug concentration by a LC-MS/MS method (if the test drug was the prodrug, concentrations of the prodrug and the hydrolyzed parent drug were analyzed simultaneously), and pharmacokinetic parameters were calculated by Phoenix WinNonlin software (Pharsight Company of the United States).

[6] = High temperature and high humidity (40° C./RH 75.0%, close), 30 days

## C[C@@]12CCCCC[C@@H](Cc3c(F)cc(OC(=O)CCCCCCCCC(=O)Oc4cc(F)c5c(c4)[C@@]4(C)CCCCC[C@@H](C5)[C@@H]4N)cc31)[C@@H]2N [listing 1 of 2 here]
[1]; 0 day
  Content: 99.3%
  Total impurity: 1.56%
[1]; [6]
  Content: 97.8%
  Total impurity: 1.96%
[1]; high temperature, high humidity and sealing, 30 days
  Solid stability of amorphous form (conclusion in words): relatively stable
[2]; 0.01 N HCl, simulated gastric fluid, 0.01 NHCl, final pH 2.01, 37° C., 24 h
  solubility at 24 h: 1630 µg/mL (≈ 2.35 mM)
[2]; 0.1 N HCl, simulated gastric fluid, 0.1 NHCl, final pH 1.02, 37° C., 24 h
  solubility at 24 h: 398 µg/mL (≈ 0.574 mM)
[2]; aqueous buffer, pH 3.8 buffer solution (acetate), final pH 3.68, 37° C., 24 h
  solubility at 24 h: 15100 µg/mL (≈ 21.8 mM)
[2]; aqueous buffer, pH 4.5 buffer solution (acetate), final pH 4.48, 37° C., 24 h
  solubility at 24 h: 19600 µg/mL (≈ 28.3 mM)
[2]; aqueous buffer, pH 5.5 buffer solution (acetate), final pH 5.25, 37° C., 24 h
  solubility at 24 h: 18700 µg/mL (≈ 27 mM)
[2]; aqueous buffer, pH 6.0 buffer solution (phosphate), final pH 5.89, 37° C., 24 h
  solubility at 24 h: 13 µg/mL (≈ 0.0188 mM)
[2]; aqueous buffer, pH 6.8 buffer solution (phosphate), final pH 6.75, 37° C., 24 h
  solubility at 24 h: 3 µg/mL (≈ 0.00433 mM)
[2]; hydrochloric acid solution, acetate buffer solution and water
  Solubility (in words): easily soluble
[2]; pH 7.4 buffer solution (phosphate), final pH 7.20, 37° C., 24 h, LOQ = 0.0003 mg/mL
  Solubility: <LOQ
[2]; phosphate buffer solution
  Solubility (in words): slightly soluble or insoluble
[2]; pure water, Water, final pH 4.28, 37° C., 24 h
  solubility at 24 h: 13500 µg/mL (≈ 19.5 mM)
[3]
  Hygroscopicity (in words): had hygroscopicity
[3]; average of three samples, over saturated ammonium chloride solution
  Weight increase percentage, average value: 5.24%
[3]; single samples 1-3, over saturated ammonium chloride solution
  Weight increase percentage: 5.790% and 5.215% and 4.714%

## C[C@@]12CCCCC[C@@H](Cc3c(F)cc(OC(=O)CCCCCCCCC(=O)Oc4cc(F)c5c(c4)[C@@]4(C)CCCCC[C@@H](C5)[C@@H]4N)cc31)[C@@H]2N [listing 2 of 2 here]
[4]; 0 day, initial
  Crystal form (MOD): Crystal form of compound represented
[4]; High humidity (RT/RH 92.5%, open), 5 days
  Crystal form (MOD): Crystal form of compound represented
[4]; High humidity (RT/RH 92.5%, open), 10 days
  Crystal form (MOD): Crystal form of compound represented
[4]; High temperature (60° C., open), 5 days
  Crystal form (MOD): Crystal form of compound represented
[4]; High temperature (60° C., open), 10 days
  Crystal form (MOD): Crystal form of compound represented
[4]; Illumination (5000lx, closed), 5 days
  Crystal form (MOD): Crystal form of compound represented
[4]; Illumination (5000lx, closed), 10 days
  Crystal form (MOD): Crystal form of compound represented
[4]; high temperature, high humidity and illumination, 5 and 10 days vs 0 day
  Solid stability of crystal form (conclusion in words): did not change; also recorded: stable under the conditions of high temperature, high humidity and illumination without any change

## C[C@@]12CCCCC[C@@H](Cc3c(F)cc(OC(=O)CCCCCCCCC(=O)Oc4cc(F)c5c(c4)[C@@]4(C)CCCCC[C@@H](C5)[C@@H]4N)cc31)[C@@H]2N [Compound B]
[5]
  Release and hydrolysis in vivo (in words): slowly released in vivo after intramuscular injection and quickly hydrolyzed into the parent drug compound A
